Drawing on publication PMC5547389, “Structure-activity relationships and molecular docking studies of chromene and chromene based azo chromophores: A novel series of potent antimicrobial and anticancer agents” (EXCLI Journal, 2017), this text covers zone of inhibition and remaining activity for 5 compounds.

The subject of assay [1] is Syncephalastrum racemosum (RCMB 05922). Kind of assay: Well diffusion assay (inhibition zone). It is filed as cell-based. As to conditions: RCMB05922, 5 mg/mL in DMSO, fungi, read-out: Inhibition Zone (IZ) diameter, S.R. The procedure, abridged: (§1)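 Agar well diffusion with 10 mm wells, nutrient agar for bacteria and malt extract agar for fungi. Plates were incubated 24-48 h at 37 °C for bacteria or 28 °C for fungi. Inhibition zone diameters were measured in mm, in triplicate.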

For assay [2], the system named is Escherichia coli (RCMB 010052). In words: Well diffusion assay (inhibition zone). It is filed as cell-based. As to conditions: RCMB010052, 5 mg/mL in DMSO, Gm-ve, read-out: Inhibition Zone (IZ) diameter, E.C. In a few lines: as §1
In assay [3] the test system is Bacillus subtilis (RCMB 010067). Kind of assay: Well diffusion assay (inhibition zone). It is filed as cell-based. The following applies: RCMB010067, 5 mg/mL in DMSO, Gm+ve, read-out: Inhibition Zone (IZ) diameter, B.S. In a few lines: as §1
Assay [4] relates to Streptococcus pneumoniae (RCMB 010010). In words: Well diffusion assay (inhibition zone). It counts as cell-based. The following applies: RCMB010010, 5 mg/mL in DMSO, Gm+ve, read-out: Inhibition Zone (IZ) diameter, S.P. The procedure, abridged: as §1
On the technique in general: In agar diffusion tests the substance spreads into inoculated agar from a disc or well.

Assay [5] has as its system Aspergillus fumigatus (RCMB 02568). Kind of assay: Well diffusion assay (inhibition zone). It counts as cell-based. As to conditions: RCMB02568, 5 mg/mL in DMSO, fungi, read-out: Inhibition Zone (IZ) diameter, A.F. In a few lines: as §1
In assay [6] the test system is Geotricum candidum (RCMB 05097). In words: Well diffusion assay (inhibition zone). The following applies: 5 mg/mL in DMSO; fungi; read-out: Inhibition Zone (IZ) diameter, G.C. It is filed as cell-based. In a few lines: as §1
Assay [7] deals with T1, DNA gyrase from Escherichia coli (Escherichia coli, UniProt P0AES4+P0AES6).
T1 construct: purchased Inspiral is Ltd (Norwich, United Kingdom)
T1 sequence (P0AES4 whole entry, one chain of several): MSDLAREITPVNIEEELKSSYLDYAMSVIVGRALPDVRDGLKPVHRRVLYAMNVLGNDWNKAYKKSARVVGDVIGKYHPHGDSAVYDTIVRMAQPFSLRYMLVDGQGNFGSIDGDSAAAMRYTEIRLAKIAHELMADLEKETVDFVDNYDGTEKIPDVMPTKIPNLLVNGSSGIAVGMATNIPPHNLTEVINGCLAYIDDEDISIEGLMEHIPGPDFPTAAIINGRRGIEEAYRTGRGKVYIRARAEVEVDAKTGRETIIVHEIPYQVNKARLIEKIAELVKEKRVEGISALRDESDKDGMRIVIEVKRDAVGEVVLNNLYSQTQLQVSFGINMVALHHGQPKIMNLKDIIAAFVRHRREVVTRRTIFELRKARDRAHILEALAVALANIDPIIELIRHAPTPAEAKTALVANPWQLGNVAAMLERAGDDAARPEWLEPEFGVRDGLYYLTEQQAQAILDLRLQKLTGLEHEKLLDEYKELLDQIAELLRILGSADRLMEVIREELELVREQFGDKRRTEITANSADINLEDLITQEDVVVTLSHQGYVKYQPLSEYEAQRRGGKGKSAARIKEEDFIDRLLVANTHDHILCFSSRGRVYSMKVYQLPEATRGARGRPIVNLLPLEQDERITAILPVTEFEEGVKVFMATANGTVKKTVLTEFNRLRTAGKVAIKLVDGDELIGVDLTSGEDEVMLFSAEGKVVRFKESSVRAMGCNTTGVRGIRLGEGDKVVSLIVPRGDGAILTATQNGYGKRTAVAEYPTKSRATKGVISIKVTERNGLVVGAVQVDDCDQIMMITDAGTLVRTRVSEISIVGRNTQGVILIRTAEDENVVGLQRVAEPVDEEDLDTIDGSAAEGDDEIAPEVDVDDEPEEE
Kind of assay: In vitro inhibitory activity screening of E. coli DNA gyrase. It counts as biochemical. The following applies: for remaining activity at 10 µM: 10 μM of compound, read-out: DNA Gyrase Residual activity RA (10 μM); for remaining activity at 100 µM: read-out: DNA Gyrase Residual activity RA (100 μM). How it is done: Gyrase B and ParE monomers have only modest ATPase activity which is enhanced in the case of the holo enzymes and stimulated further by DNA. The phosphate released following conversion of ATP into ADP can be detected by the addition of malachite green solution and measured by monitoring the increase in absorbance at 600 nm. Topoisomerases were purchased from Inspiral is Ltd (Norwich, United Kingdom). For the Escherichia coli DNA gyrase ATPase assay, the final assay composition was 10 nM DNA gyrase (a complex of two GyrA and two GyrB subunits, the A2B2 complex) 3 mM Tris, pH 7.5, 24 mM KCl, 2 mM MgCl2, 6.5 % (w/v) glycerol, 0.01 mg/ml bovine serum albumin (BSA), 2 mM DTT (dithiothreitol), 9 mM ATP, and 5 % DMSO solution containing the compounds). For E. coli topoisomerase IV ATPase assay, the final assay composition was 10 nM topoisomerase IV (a complex consisting of two ParC and two ParE subunits), 40 mM HEPES-KOH, pH 7.6, 100 mM Potassium Glutamate, 25 mM Magnesium Acetate, […] single-stranded DNA, 0.2 mg/ml BSA, 10 mM DTT, 0.5 mM ATP, and 5 % DMSO solution containing the compounds. The reactions were started by the addition of the ATP, and the reaction mixtures were allowed to incubate at 30 °C for 60 mins. Reactions were stopped by adding Malachite green solution (0.034 % malachite green, 10 mM ammonium molybdate, 1M HCl, 3.4 % Ethanol, 0.01 % Tween 20). Color was allowed to develop for 5 min, and the absorbance at 600 nm was measured spectrophotometrically. The half-maximum (50 %) inhibitory concentration (IC50) values were determined from the absorbance readings using no-compound and no-enzyme controls. The values reported are the averages of at least four independent experiments.
Based upon the antimicrobial screening data, target compounds 4a, 7c, and 13b were evaluated against DNA gyrase from Escherichia coli in the DNA supercoiling assay for studying their mechanism. The results are presented in Table 5(Tab. 5) as residual activities (RA is the percentage activity of the enzyme in the presence of 10 μM and 100 μM of compound).

Structures are written as SMILES.

With `N#CC1=C(N)Oc2c(N)cc3ccccc3c2C1c1ccc(Cl)cc1` (centres unmarked) [4b, 3,5-diamino-1-(4-chlorophenyl)-1H-benzo[f]chromene-2-carbonitrile], the zone of inhibition at 5000 µg/mL in assay [1] was 17.6 mm; in assay [2] it was 18.3 mm; in assay [3], 33.7 mm; in assay [4], 22.6 mm; in assay [5], 24.3 mm; in assay [6], 26.9 mm.
Take `N#CC1=C(N)Oc2c(ccc3c(N)cccc23)C1c1ccc(F)cc1` (centres unmarked) [7c]: the zone of inhibition at 5000 µg/mL in assay [1] amounted to 16.2 mm; in assay [2] it was 18.6 mm; in assay [3], 21.3 mm; in assay [4], 17.8 mm; in assay [5], 18.2 mm; in assay [6], 20.1 mm. Besides, the remaining activity at 10 µM in assay [7] came out at 125%. In assay [7], the remaining activity at 100 µM came out at 128%.
Regarding `N#CC1=C(N)Oc2c(N)cc3ccccc3c2C1c1ccc(F)cc1` (centres unmarked) [4a, 3,5-diamino-1-(4-fluorophenyl)-1H-benzo[f]chromene-2-carbonitrile], the zone of inhibition at 5000 µg/mL in assay [1] turned out to be 12.6 mm; in assay [2], 11.9 mm; in assay [3] it was 18.2 mm; in assay [4] it was 16.9 mm; in assay [5], 12.3 mm. Besides, the remaining activity at 10 µM in assay [7] worked out at 117%. Also, the remaining activity at 100 µM in assay [7] came out at 114%.
For `COc1ccc(N=Nc2cc3c(cc2O)OC(N)=C(C#N)C3c2ccc(F)cc2)cc1` (centres unmarked) [13b, 2-Amino-4-(4-fluoro-phenyl)-7-hydroxy-6-(4-methoxy-phenylazo)-4H-chromene-3-carbonitrile], the zone of inhibition at 5000 µg/mL in assay [1] was 15.2 mm; in assay [2] it was 17.8 mm; in assay [3], 19.7 mm; in assay [4], 17.5 mm; in assay [5], 16.3 mm; in assay [6] it was 17.3 mm. Also, the remaining activity at 10 µM in assay [7] came to 137%. The remaining activity at 100 µM in assay [7] was 127%.
Regarding `Cc1ccc(C2C(C#N)=C(N)Oc3c(N)cc4ccccc4c32)cc1` (centres unmarked) [4c, 3,5-diamino-1-(p-tolyl)-1H-benzo[f]chromene-2-carbonitrile], the zone of inhibition at 5000 µg/mL worked out at 16.9 mm in assay [1]; 15.3 mm in assay [2]; 19.4 mm in assay [3]; 18.2 mm in assay [4]; 20.2 mm in assay [5]; 18.6 mm in assay [6].
